The supplement of paper PMC4862054

Legend:
Test in all cases: normalised response (% of control), CellTiter-Glo; higher = more viable cells (100 = DMSO, 0 = benzethonium chloride kill control)
Conditions in all cases: incubation time: 72 h
MDA-MB-436 = tested on: MDA-MB-436
In short: (§1)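 Breast cancer cell lines were exposed for 72 h in 384-well plates to compound at 5 concentrations, 10-fold apart, covering a 10,000-fold range fixed for each compound. Plates were read for CellTox Green fluorescence and CellTiter-Glo luminescence and normalised to 0.1 % DMSO (100) and a positive kill control (0). Each value is the normalised signal at one concentration of the series.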

Hs578T = tested on: Hs578T
In short: as §1

CAL-148 = tested on: CAL-148
In short: as §1

BT-549 = tested on: BT-549
In short: as §1

HCC1937 = tested on: HCC1937
In short: as §1

BT-474 = tested on: BT-474
In short: as §1

HCC1143 = tested on: HCC1143
In short: as §1

MFM-223 = tested on: MFM-223
In short: as §1

MDA-MB-231 = tested on: MDA-MB-231
In short: as §1

CAL-51 = tested on: CAL-51
In short: as §1

MDA-MB-468 = tested on: MDA-MB-468
In short: as §1

CAL-120 = tested on: CAL-120
In short: as §1

MCF-10A = tested on: MCF-10A
In short: as §1

CAL-85-1 = tested on: CAL-85-1
In short: as §1

MDA-MB-453 = tested on: MDA-MB-453
In short: as §1

HDQ-P1 = tested on: HDQ-P1
In short: as §1

HCC1599 = tested on: HCC1599
In short: as §1

DU-4475 = tested on: DU-4475
In short: as §1

SK-BR-3 = tested on: SK-BR-3
In short: as §1

Compound	normalised response (MDA-MB-436)	normalised response (Hs578T)	normalised response (CAL-148)	normalised response (BT-549)	normalised response (HCC1937)	normalised response (BT-474)	normalised response (HCC1143)	normalised response (MFM-223)	normalised response (MDA-MB-231)	normalised response (CAL-51)	normalised response (MDA-MB-468)	normalised response (CAL-120)	normalised response (MCF-10A)	normalised response (CAL-85-1)	normalised response (MDA-MB-453)	normalised response (HDQ-P1)	normalised response (HCC1599)	normalised response (DU-4475)	normalised response (SK-BR-3)
Nc1ncnc2c1c(COc1cccc(Cl)c1)nn2C1CCOCC1 (10 nM)	105%	108%	115%	98.2%	97.7%	101%	105%	105%	107%	94.8%	106%	96.6%	114%	101%	104%	99.1%	101%	105%	
Cc1ccc(NC(=O)c2ccc(CN3CCN(C)CC3)cc2)cc1Nc1nccc(-c2cccnc2)n1 [Imatinib] (1 nM)	89.9%	103%	114%	102%	94.5%	99.2%	100%	108%	105%	74.7%	102%	101%	101%	102%	119%	102%	101%	107%	107%
CCCCCCCCc1ccc(CCC(N)(CO)CO)cc1 [Fingolimod] (1 nM)	92.8%	100%	97.3%	106%	95.9%	97.7%	96.8%	103%	98%	97.7%	107%	96.4%	103%	103%	109%	98.6%	106%	101%	102%
CC[C@]1(O)C[C@H]2CN(CCc3c([nH]c4ccccc34)[C@@](C(=O)OC)(c3cc4c(cc3OC)N(C=O)[C@H]3[C@@](O)(C(=O)OC)[C@H](OC(C)=O)[C@]5(CC)C=CCN6CC[C@]43[C@@H]65)C2)C1 [Vincristine] (0.1 nM)	116%	110%	109%	99.5%	94.1%	97.8%	103%	102%	104%	88.2%	112%	94.7%	105%	99.1%	107%	99.9%	92.7%	106%	102%
CNNCc1ccc(C(=O)NC(C)C)cc1 [Procarbazine] (1 nM)	101%	108%	104%	111%	111%	102%	112%	105%	104%	88.6%	104%	101%	111%	103%	108%	104%	109%	103%	112%
CN(C)C[C@@H]1CCn2cc(c3ccccc32)C2=C(C(=O)NC2=O)c2cn(c3ccccc23)CCO1 [Ruboxistaurin] (10 nM)	101%	98.1%	96.1%	95.5%	99.5%	99.1%	99.9%	94.6%	94%	91.4%	103%	94.3%	98.3%	95.6%	100%	101%	104%	95.3%	116%
Cn1c(=O)n(-c2ccc(C(C)(C)C#N)cc2)c2c3cc(-c4cnc5ccccc5c4)ccc3ncc21 [Dactolisib] (1 nM)	95.8%	95.7%	116%	101%	98.7%	106%	98.5%	108%	107%	83.4%	103%	90.2%	113%	101%	110%	95%	95.8%	107%	
COc1ccc(-c2ccc3c(N4CCOC[C@@H]4C)nc(N4CCOC[C@@H]4C)nc3n2)cc1CO [AZD8055] (1 nM)	89.3%	93.7%	89.3%	98.2%	91%	90.8%	86.8%	86.8%	95.2%	116%	90.5%	90.3%	85.7%	93.5%	104%	95.2%	108%	95.5%	87.1%
CCCCCCCCc1ccc(CCC(N)(CO)CO)cc1 [Fingolimod] (10 nM)	94.5%	103%	94.5%	98.1%	100%	99.7%	99.5%	101%	99.2%	125%	94.2%	95.5%	105%	111%	105%	104%	120%	103%	105%
CC(C)c1c(C(=O)Nc2ccccc2)c(-c2ccccc2)c(-c2ccc(F)cc2)n1CC[C@@H](O)C[C@@H](O)CC(=O)O [Atorvastatin] (10 nM)	96.5%	101%	101%	90%	99.7%	100%	103%	102%	96.9%	76.1%	104%	96.8%	100%	98.9%	104%	101%	104%	98.7%	102%
c1ccc([C@H]2CN3CCSC3=N2)cc1 [Levamisole] (10 nM)	106%	105%	114%	99%	103%	106%	99.5%	110%	99.3%	78.9%	102%	100%	110%	95.6%	117%	97%	99.5%	103%	95.1%
C[C@]12CC[C@H](O)CC1=CC[C@@H]1[C@@H]2CC[C@]2(C)C(c3cccnc3)=CC[C@@H]12 [Abiraterone] (0.5 nM)	94.7%	102%	108%	105%	96.2%	104%	94.7%	98%	105%	95.7%	109%	97.6%	102%	106%	114%	106%	119%	94.5%	106%
CN(C)CCN1C(=O)c2cccc3cc(N)cc(c23)C1=O [Amonafide] (1 nM)	100%	97.6%	99.9%	101%	99.3%	104%	94%	103%	102%	120%	94.7%	99.7%	88.6%	101%	105%	97.3%	102%	101%	103%
CN1CCN(CCOc2cc(OC3CCOCC3)c3c(Nc4c(Cl)ccc5c4OCO5)ncnc3c2)CC1 [Saracatinib] (10 nM)	94.8%	101%	91.6%	103%	97.6%	93.5%	94.4%	96%	92.7%	129%	93.2%	93.1%	97.8%	104%	107%	118%	103%	103%	113%
NS(=O)(=O)OC[C@@H]1C[C@@H](n2ccc3c(N[C@H]4CCc5ccccc54)ncnc32)C[C@@H]1O [Pevonedistat] (10 nM)	96.6%	103%	109%	94%	99.1%	114%	102%	102%	107%	77%	97.2%	97.8%	112%	100%	100%	95.9%	97.1%	109%	93.5%
CN1CCN(CCOc2cc(OC3CCOCC3)c3c(Nc4c(Cl)ccc5c4OCO5)ncnc3c2)CC1 [Saracatinib] (1 nM)	103%	97.4%	97.9%	105%	95.7%	94.4%	89.2%	97.5%	94.6%	116%	99.2%	94.4%	96.5%	105%	103%	94.5%	116%	102%	98.6%
CC[C@]1(O)C[C@H]2CN(CCc3c([nH]c4ccccc34)[C@@](C(=O)OC)(c3cc4c(cc3OC)N(C=O)[C@H]3[C@@](O)(C(=O)OC)[C@H](OC(C)=O)[C@]5(CC)C=CCN6CC[C@]43[C@@H]65)C2)C1 [Vincristine] (1 nM)	106%	105%	110%	87.6%	96.3%	100%	104%	104%	99.4%	91.4%	95.3%	96.4%	104%	102%	104%	97.6%	113%	106%	
C/C(=C\c1csc(C)n1)[C@@H]1C[C@@H]2O[C@]2(C)CCC[C@H](C)[C@H](O)[C@@H](C)C(=O)C(C)(C)[C@@H](O)CC(=O)O1 [Patupilone] (1 nM)	108%	104%	106%	97.3%	103%	104%	111%	101%	107%	99.2%	109%	103%	106%	105%	107%	97.3%	117%	106%	
CN(C)CCN1C(=O)c2cccc3cc(N)cc(c23)C1=O [Amonafide] (10 nM)	103%	99.8%	86.5%	100%	96.9%	98.7%	101%	99.8%	102%	123%	93%	97%	97.6%	98%	98.6%	100%	95%	99.7%	
O=C(O)CCCc1ccc(N(CCCl)CCCl)cc1 [Chlorambucil] (10 nM)	104%	103%	101%	102%	98.8%	99.1%	102%	108%	106%	95.2%	101%	97.2%	93.6%	108%	101%	99.7%	97.8%	101%	
